The source of these data is US10844077B2, “Thiazolyl-containing compounds for treating proliferative diseases” (Dana-Farber Cancer Institute, Inc., priority 2014, dated 2020).

The target in one experiment is NDR1 (Homo sapiens (Human), UniProt Q15208). As to the kind of experiment: KINATIV assay. The class given is cell-based. The settings on record: 1 μM, 90 minutes, BCWM.1 cells. The method, boiled down: (§1)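 ATP-biotin probe labeling of whole-cell lysates, followed by ACTIVX identification/quantitation of bound kinases; compounds in duplicate.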
Experiment [1] has as its target kinases in BCWM.1 cells (Homo sapiens, UniProt O14757). Nature of the experiment: KINATIV assay of compounds I-3 and I-9, lysate directly labeled with ATP-biotin probe (no GF). The class given is cell-based. The settings on record: CHK1; Lys2; 1 μM; no GF. Here is the method: (§2) The cells were harvested and lysed. […] Bound kinases were identified and quantitated by ACTIVX as described in Patricelli et al., Biochemistry, 2007, 46(2): 350-358. The compounds were tested in duplicates against duplicate or quadruplicate control samples.

The target in experiment [2] is kinases in BCWM.1 cells (Homo sapiens, UniProt P06493). The experiment is described as above. The class given is cell-based. The settings on record: CDC2; Protein Kinase Domain; 1 μM; no GF. Here is the method: as §2
The target of experiment [3] is kinases in BCWM.1 cells (Homo sapiens, UniProt P11802). The experiment is described as above. The class given is cell-based. The settings on record: CDK4; Lys2; 1 μM; no GF. The protocol: as §2
Experiment [4] addresses kinases in BCWM.1 cells (Homo sapiens, UniProt P23458). Described as above. The class given is cell-based. The settings on record: JAK1 domain2; Activation Loop; 1 μM; no GF. The protocol: as §2
Experiment [5] has as its target kinases in BCWM.1 cells (Homo sapiens, UniProt P29323). The description is as above. The class given is cell-based. The settings on record: EphB2; Activation Loop; 1 μM; no GF. The protocol: as §2
In experiment [6] the target is kinases in BCWM.1 cells (Homo sapiens, UniProt P45985). The experiment is described as above. The class given is cell-based. The settings on record: MAP2K4; Lys2; 1 μM; no GF. The protocol:
as §2

The target of experiment [7] is kinases in BCWM.1 cells (Homo sapiens, UniProt P50613). Described as above. The class given is cell-based. The settings on record: CDK7; Lys2; 1 μM; no GF. Here is the method:
as §2

The target of experiment [8] is kinases in BCWM.1 cells (Homo sapiens, UniProt P52333). The description is as above. The settings on record: JAK3 domain2; Activation Loop; 1 μM; no GF. The class given is cell-based. Here is the method: as §2
Experiment [9] concerns the target kinases in BCWM.1 cells (Homo sapiens, UniProt Q04759). The experiment is described as above. The settings on record: PKCt; ATP Loop; 1 μM, 90 min; no GF. The class given is cell-based. The protocol: as §2
For experiment [10], the target named is kinases in BCWM.1 cells (Homo sapiens, UniProt Q12851). Described as above. The class given is cell-based. The settings on record: GCK; Lys2; 1 μM; no GF. Here is the method: as §2
Experiment [11] deals with kinases in BCWM.1 cells (Homo sapiens, UniProt Q5TCX8). The description is as above. The class given is cell-based. The settings on record: MLK4; Lys2; 1 μM; no GF. Here is the method: as §2
The target of the next experiment is CDK7 (Homo sapiens (Human), UniProt P50613). Nature of the experiment: KINATIV assay. The class given is cell-based. The settings on record: 1 μM, 90 minutes, BCWM.1 cells. The essentials:
as §1

Another experiment addresses DNAPK (Homo sapiens (Human), UniProt P78527). As to the kind of experiment: KINATIV assay. The settings on record: 1 μM, 90 minutes, BCWM.1 cells. The class given is cell-based. The method, boiled down:
as §1

For the next experiment, the target named is IKKb (Homo sapiens (Human), UniProt O14920). Nature of the experiment: KINATIV assay. The class given is cell-based. The settings on record: 1 μM, 90 minutes, BCWM.1 cells. The method, boiled down: as §1
Another experiment has as its target JAK3 domain2 (Homo sapiens (Human), UniProt P52333). Nature of the experiment: KINATIV assay. The class given is cell-based. The settings on record: 1 μM, 90 minutes, BCWM.1 cells. The method, boiled down: as §1
For another experiment, the target named is PFTAIRE1 (Homo sapiens (Human), UniProt O94921). Here is the method:
The cells were harvested and lysed. The lysates were directly labeled with an ATP-biotin probe. Bound kinases were identified and quantitated by ACTIVX as described in Patricelli et al., Biochemistry, 2007, 46(2): 350-358. The compounds were tested in duplicates against duplicate or quadruplicate control samples.

The test system of another experiment is MAP2K1, MAP2K2. Nature of the experiment: KINATIV assay. The class given is cell-based. The settings on record: 1 μM, 90 minutes, BCWM.1 cells. The essentials: as §1
The target of the next experiment is p38a (Homo sapiens (Human), UniProt Q16539). Nature of the experiment: KINATIV assay. The class given is cell-based. The settings on record: 1 μM, 90 minutes, BCWM.1 cells. The method, boiled down: as §1
For experiment [12], the target named is kinases in BCWM.1 cells (Homo sapiens, UniProt O00506). As to the kind of experiment: KINATIV assay of compounds I-3 and I-9, lysate directly labeled with ATP-biotin probe (no GF). The class given is cell-based. The settings on record: YSK1; Lys1; 1 μM, 90 min; no GF. Here is the method:
as §2

Experiment [13] addresses kinases in BCWM.1 cells (Homo sapiens, UniProt Q9UK32). The experiment is described as above. The class given is cell-based. The settings on record: RSK4 domain1; Lys2; 1 μM, 90 min; no GF. The protocol: as §2
The subject of a further experiment is BCWM.1. Nature of the experiment: CellTiter-Glo Luminescent cell viability assay. The class given is cell-based. The settings on record: cell survival, 72 hours. The protocol:
(§3) The inhibitory activities of exemplary compounds described herein against select protein kinases and cells were determined. Cell survival following treatment of exemplary compounds described herein was assessed by CellTiter-Glo® Luminescent cell viability assay (Promega). The cells were seeded into 384 well plates with the EL406 Combination Washer Dispenser (BioTek Instruments, Inc.), and a series diluted exemplary compounds (20˜0.0006 μM) were injected into the culture media with the JANUS Automated Workstation (PerkinElmer Inc.). The cells were treated for 72 hours at 37° C. with 5% CO2. Luminescent measurement is performed using the 2104 Envision® Multilabel Reader (PerkinElmer Inc.). EC50 values were calculated with […] PRISM software.

The next experiment has as its system HBL-1. As to the kind of experiment: CellTiter-Glo Luminescent cell viability assay. The class given is cell-based. The settings on record: cell survival, 72 hours. The protocol:
as §3

A further experiment deals with MWCL-1. Nature of the experiment: CellTiter-Glo Luminescent cell viability assay. The settings on record: cell survival, 72 hours. The class given is cell-based. The protocol: as §3
The subject of another experiment is OCI-Ly19. Nature of the experiment: CellTiter-Glo Luminescent cell viability assay. The class given is cell-based. The settings on record: cell survival, 72 hours. Here is the method:
as §3

The next experiment deals with Ramos. Nature of the experiment: CellTiter-Glo Luminescent cell viability assay. The class given is cell-based. The settings on record: cell survival, 72 hours. The protocol: as §3
The test system of another experiment is TMD-8. Nature of the experiment: CellTiter-Glo Luminescent cell viability assay. The class given is cell-based. The settings on record: cell survival, 72 hours. Here is the method:
as §3

In a further experiment the target is SLK (Homo sapiens (Human), UniProt Q9H2G2). As to the kind of experiment: KINATIV assay. The class given is cell-based. The settings on record: 1 μM, 90 minutes, BCWM.1 cells. The essentials:
as §1

Several values for one entry are separate records, joined by “and”; a condition that tells them apart may be missing. Equal entries are not always repeated. A value given as a limit tells only on which side of the number the result lay.

Chain of NDR1 (Q15208 whole entry): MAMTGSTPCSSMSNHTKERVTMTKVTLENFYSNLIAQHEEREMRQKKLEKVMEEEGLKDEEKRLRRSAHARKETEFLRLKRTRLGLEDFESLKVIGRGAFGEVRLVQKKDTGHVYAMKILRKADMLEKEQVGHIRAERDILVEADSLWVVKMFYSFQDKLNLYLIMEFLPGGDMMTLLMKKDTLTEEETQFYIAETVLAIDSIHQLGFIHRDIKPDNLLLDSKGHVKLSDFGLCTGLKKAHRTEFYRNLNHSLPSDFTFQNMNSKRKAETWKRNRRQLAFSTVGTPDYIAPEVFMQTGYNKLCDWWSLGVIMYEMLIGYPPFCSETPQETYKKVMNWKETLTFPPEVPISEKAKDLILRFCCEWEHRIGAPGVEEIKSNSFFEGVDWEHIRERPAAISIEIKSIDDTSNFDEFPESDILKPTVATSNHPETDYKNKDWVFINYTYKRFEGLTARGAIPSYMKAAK
Chain of kinases in BCWM.1 cells (Homo sapiens, UniProt P45985) (P45985 2-399 limits assumed): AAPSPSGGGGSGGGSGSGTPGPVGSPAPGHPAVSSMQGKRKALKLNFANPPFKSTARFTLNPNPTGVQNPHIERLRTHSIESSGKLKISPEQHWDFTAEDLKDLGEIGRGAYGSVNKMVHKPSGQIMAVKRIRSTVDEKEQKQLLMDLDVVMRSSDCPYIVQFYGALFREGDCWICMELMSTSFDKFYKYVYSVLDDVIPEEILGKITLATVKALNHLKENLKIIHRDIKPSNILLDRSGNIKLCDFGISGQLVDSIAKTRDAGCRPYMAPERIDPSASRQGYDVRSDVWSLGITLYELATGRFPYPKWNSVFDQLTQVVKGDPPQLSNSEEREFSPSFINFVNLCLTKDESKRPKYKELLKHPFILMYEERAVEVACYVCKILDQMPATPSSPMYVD
Chain of p38a (Q16539 whole entry): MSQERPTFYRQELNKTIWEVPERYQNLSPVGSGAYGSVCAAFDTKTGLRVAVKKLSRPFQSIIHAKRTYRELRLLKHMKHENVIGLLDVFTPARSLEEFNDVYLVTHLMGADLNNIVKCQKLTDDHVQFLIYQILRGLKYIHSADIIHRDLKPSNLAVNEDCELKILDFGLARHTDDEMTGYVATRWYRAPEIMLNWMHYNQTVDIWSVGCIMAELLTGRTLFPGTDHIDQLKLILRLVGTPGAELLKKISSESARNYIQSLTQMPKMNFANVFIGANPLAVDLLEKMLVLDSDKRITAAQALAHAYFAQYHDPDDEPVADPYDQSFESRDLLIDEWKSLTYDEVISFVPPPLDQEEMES
Chain of kinases in BCWM.1 cells (Homo sapiens, UniProt P11802) (P11802 2-303 limits assumed): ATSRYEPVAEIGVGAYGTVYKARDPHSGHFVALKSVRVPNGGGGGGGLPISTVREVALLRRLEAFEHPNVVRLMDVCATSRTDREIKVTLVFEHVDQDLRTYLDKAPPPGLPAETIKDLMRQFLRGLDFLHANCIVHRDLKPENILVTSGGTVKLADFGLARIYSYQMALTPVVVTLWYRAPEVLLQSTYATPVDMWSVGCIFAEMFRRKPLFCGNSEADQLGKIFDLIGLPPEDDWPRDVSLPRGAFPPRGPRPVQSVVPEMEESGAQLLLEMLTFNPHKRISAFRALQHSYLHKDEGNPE
Chain of SLK (Q9H2G2 whole entry): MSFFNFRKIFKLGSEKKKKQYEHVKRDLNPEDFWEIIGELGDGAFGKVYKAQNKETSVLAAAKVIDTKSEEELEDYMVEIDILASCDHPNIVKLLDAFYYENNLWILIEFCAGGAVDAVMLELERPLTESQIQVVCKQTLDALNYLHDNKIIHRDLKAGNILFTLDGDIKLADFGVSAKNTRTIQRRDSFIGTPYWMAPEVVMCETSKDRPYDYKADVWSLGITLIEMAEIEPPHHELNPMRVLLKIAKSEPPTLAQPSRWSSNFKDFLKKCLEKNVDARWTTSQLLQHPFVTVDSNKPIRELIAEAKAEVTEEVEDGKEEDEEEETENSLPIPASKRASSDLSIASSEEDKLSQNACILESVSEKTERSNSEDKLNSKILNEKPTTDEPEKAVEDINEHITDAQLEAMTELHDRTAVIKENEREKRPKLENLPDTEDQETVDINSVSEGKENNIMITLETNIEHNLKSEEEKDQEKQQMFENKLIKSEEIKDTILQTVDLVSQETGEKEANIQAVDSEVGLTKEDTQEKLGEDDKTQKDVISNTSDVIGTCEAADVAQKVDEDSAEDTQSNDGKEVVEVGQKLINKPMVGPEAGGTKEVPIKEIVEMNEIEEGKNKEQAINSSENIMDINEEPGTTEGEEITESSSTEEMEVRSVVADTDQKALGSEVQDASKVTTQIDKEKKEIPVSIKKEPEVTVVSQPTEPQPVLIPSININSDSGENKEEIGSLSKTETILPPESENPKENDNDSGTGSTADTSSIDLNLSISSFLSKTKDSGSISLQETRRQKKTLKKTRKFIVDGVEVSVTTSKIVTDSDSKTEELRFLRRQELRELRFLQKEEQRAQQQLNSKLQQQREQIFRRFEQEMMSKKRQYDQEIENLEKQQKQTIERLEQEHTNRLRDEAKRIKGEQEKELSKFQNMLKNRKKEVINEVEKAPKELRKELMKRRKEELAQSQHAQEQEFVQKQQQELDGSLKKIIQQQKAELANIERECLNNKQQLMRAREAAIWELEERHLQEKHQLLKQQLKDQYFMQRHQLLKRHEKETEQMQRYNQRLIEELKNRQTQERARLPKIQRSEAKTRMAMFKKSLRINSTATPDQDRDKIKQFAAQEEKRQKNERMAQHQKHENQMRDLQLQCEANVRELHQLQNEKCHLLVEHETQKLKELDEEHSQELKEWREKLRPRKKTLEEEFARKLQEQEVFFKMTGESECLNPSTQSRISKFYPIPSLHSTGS
Chain of PFTAIRE1 (O94921 whole entry, looked up): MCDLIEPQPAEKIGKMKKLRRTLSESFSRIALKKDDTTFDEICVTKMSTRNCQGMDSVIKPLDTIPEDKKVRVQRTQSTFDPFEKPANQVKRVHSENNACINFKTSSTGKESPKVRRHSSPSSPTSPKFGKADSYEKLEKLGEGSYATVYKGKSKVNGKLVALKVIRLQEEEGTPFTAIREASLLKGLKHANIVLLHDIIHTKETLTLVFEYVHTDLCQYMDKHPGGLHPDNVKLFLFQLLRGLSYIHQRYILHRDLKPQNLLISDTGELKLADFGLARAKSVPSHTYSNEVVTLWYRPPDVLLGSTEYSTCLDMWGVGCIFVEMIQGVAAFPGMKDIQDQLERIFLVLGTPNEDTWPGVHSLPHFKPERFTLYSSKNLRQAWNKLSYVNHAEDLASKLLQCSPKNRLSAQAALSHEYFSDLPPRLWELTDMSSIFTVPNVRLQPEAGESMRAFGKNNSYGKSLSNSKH
Chain of kinases in BCWM.1 cells (Homo sapiens, UniProt P50613) (P50613 2-346 limits assumed): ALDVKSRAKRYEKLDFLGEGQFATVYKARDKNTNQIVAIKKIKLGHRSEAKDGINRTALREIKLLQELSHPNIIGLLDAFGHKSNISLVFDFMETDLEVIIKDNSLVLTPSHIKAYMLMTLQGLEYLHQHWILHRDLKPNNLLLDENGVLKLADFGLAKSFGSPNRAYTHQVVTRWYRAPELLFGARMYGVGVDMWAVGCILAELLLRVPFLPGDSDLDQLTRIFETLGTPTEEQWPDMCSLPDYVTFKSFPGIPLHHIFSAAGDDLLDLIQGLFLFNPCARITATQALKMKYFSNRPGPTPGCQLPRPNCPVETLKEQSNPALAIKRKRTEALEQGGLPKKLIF
Chain of CDK7 (P50613 2-346): as the sequence (P50613 2-346 limits assumed) above
Chain of CDK7 (P51946 whole entry partner): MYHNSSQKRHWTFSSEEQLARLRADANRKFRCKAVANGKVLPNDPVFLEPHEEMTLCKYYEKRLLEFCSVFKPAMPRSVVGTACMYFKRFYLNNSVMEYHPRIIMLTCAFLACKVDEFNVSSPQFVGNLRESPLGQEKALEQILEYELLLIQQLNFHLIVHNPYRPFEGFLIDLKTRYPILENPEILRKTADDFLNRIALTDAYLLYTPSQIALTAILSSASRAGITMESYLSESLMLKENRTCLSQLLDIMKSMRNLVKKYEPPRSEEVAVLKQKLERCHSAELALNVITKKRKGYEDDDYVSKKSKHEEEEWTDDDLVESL
Chain of CDK7 (P51948 whole entry partner): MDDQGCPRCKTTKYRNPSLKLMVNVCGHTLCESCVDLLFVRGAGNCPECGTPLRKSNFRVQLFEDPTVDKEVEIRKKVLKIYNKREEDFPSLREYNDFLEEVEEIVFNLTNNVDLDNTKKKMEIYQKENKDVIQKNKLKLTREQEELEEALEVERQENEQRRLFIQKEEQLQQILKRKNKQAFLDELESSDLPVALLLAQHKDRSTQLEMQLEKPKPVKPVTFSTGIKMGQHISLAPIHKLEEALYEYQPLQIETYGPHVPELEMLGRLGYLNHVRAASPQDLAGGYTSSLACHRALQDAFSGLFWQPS

As to `C=CC(=O)N1CCC(CNc2nccc(Nc3ncc(C(=O)Nc4c(C)cccc4C)s3)n2)C1` (racemic) [Example I-8], the “% change of MS signal compared to control sample” value (“% change of MS signal” below) on NDR1 is −0.8% and 2.2%.
Take `C=CC(=O)N1CC[C@H](Nc2nccc(Nc3ncc(C(=O)Nc4c(C)cccc4C)s3)n2)C1` [Example I-3]: the “% change of MS signal” value on kinases in BCWM.1 cells [1] was 9.7% and 5.6%; at kinases in BCWM.1 cells [2], −0.7% and −4.3%; at kinases in BCWM.1 cells [3], 10.3% and 4.8%; on kinases in BCWM.1 cells [4], −2.9% and −1.6%; on kinases in BCWM.1 cells [5] it was 91% and 91.6%; on kinases in BCWM.1 cells [6], −3.9% and 1.1%. In addition, the “% change of MS signal” value on kinases in BCWM.1 cells [7] is 8.9% and 5.1%; on kinases in BCWM.1 cells [8], −1.5% and −0.6%; at kinases in BCWM.1 cells [9], −5.2%; at kinases in BCWM.1 cells [10], 18.1% and 17.8%; at kinases in BCWM.1 cells [11], −3.8% and −11.8%.
`C=CC(=O)N1CC[C@@H](Nc2nccc(Nc3ncc(C(=O)Nc4c(C)cccc4C)s3)n2)C1` [Example I-4]: the “% change of MS signal” value at CDK7 was 21.6% and 16.8%; at DNAPK, −80.8%; at IKKb it was 3.1% and 4.4%; at JAK3 domain2 it was −30.8%; on PFTAIRE1, 15.3% and 6.3%.
`C=CC(=O)N1CCCCC(Nc2nccc(Nc3ncc(C(=O)Nc4c(C)cccc4C)s3)n2)C1` (stereo not shown) [Example I-7]: the “% change of MS signal” value is 7.4% with MAP2K1, MAP2K2; 69.8% and 51.2% on p38a.
With `CCC(=O)N1CC[C@H](Nc2nccc(Nc3ncc(C(=O)Nc4c(C)cccc4C)s3)n2)C1` [Example I-9], the “% change of MS signal” value at kinases in BCWM.1 cells [12] is −11.5%; on kinases in BCWM.1 cells [13] it was 9.1%.
As for `C=CC(=O)N1CCC(Cn2ccc(Nc3ncc(C(=O)Nc4c(C)cccc4Cl)s3)n2)C1` (stereo not shown) [II-1], the EC50 in the experiment with BCWM.1 was 84 nM; with HBL-1 it was 735 nM; with MWCL-1, 121 nM; with OCI-Ly19, 7880 nM; in the experiment with Ramos, over 20000 nM; with TMD-8, 573 nM. Moreover, on SLK, the “% change of MS signal” value was 0.0% and −3.6%.
